Measurements published in patent US9556180B2, “Pyrazolo[3,4-d]pyrimidinone compounds as inhibitors of the P53/MDM2 interaction” (Novartis AG, priority 2013, dated 2017).

Legend:
[1] = biological target: T1, p53-MDM2 interaction (human MDM2 protein, amino acids 2-188) (Homo sapiens, UniProt Q00987); assay: p53-MDM2 Assay 1: TR-FRET inhibition of p53-MDM2 interaction; assay type: binding; conditions: 1.25 nM MDM2-biotinylated, 10 nM Cy5-p53 peptide
T1 construct: human MDM2 protein (amino acids 2-188); made in house
T1 sequence (Q00987 2-188): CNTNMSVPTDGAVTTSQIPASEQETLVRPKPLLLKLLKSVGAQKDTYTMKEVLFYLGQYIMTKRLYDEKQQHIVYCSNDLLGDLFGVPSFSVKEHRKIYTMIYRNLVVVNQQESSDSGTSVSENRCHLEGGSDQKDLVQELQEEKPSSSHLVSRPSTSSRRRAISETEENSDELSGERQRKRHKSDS
Protocol: (§1) Time Resolved Fluorescence Energy Transfer (TR-FRET) Assay
(§2) The inhibition of p53-MDM2 and p53-MDM4 interactions is measured by time resolved fluorescence energy transfer (TR-FRET). Fluorescence energy transfer (or Foerster resonance energy transfer) describes an energy transfer between donor and acceptor fluorescent molecules. For this assay, human MDM2 protein (amino acids 2-188) and human MDM4 protein (amino acids 2-185), tagged with a C-terminal biotin moiety, are used in combination with a Europium labeled streptavidin (Perkin Elmer, Inc., Waltham, Mass., USA) serving as the donor fluorophore. The p53 derived, Cy5 labeled peptide Cy5-TFSDLWKLL (p53 aa18-26) is the energy acceptor. Upon excitation of the donor molecule at 340 nm, binding interaction between MDM2 or MDM4 and the p53 peptide induces energy transfer and enhanced response at the acceptor emission wavelength at 665 nm. Disruption of the formation of the p53-MDM2 or p53-MDM4 complex due to an inhibitor molecule binding to the p53 binding site of MDM2 or MDM4 results in increased donor emission at 620 nm. The ratiometric FRET assay readout is calculated from the raw data of the two distinct fluorescence signals measured in time resolved mode (fluorescence 665 nm/fluorescence 620 nm×1000).
(§3) After addition of 1.25 nM MDM2-biotinylated or 2.5 nM MDM4-biotinylated (internal preparations, both MDM2 and MDM4 are biotinylated at the C-terminal of the peptide construct), and 0.625 nM Europium labeled streptavidin (Perkin Elmer), the solution is pre-incubated for 15 minutes at room temperature, then 10 nM Cy5-p53 peptide (internal preparation, the Cy5 dye is directly bound to the N-terminal part of p53 peptide construct) is added before an incubation at room temperature for 15 minutes prior to reading the plate. For measurement of samples, a Victor II microplate reader (Perkin Elmer) is used with the following settings: Excitation 340 nm, Emission Donor 620 nm and Emission Acceptor 665 nm. IC50 values are calculated by curve fitting using XLfit. If not specified, reagents are purchased from Sigma-Aldrich Chemie GmBH, Buchs, Switzerland.
(§4) This assay was used to evaluate compounds displaying inhibition of p53-MDM2 interaction and p53-MDM4 interaction at IC50s of 0.005 to 50 μM (p53-MDM2 Assay 1 and p53-MDM4 Assay 1, respectively). For selected compounds displaying IC50s between […] on MDM2, a slightly modified assay is used with the following adaptations: 0.1 nM MDM2, 0.1 nM Europium labeled streptavidin and Tecan genios Pro is used as a microplate reader for the fluorescence measurements (p53-MDM2 Assay 2).

[2] = biological target: T2, p53-MDM4 interaction (human MDM4 protein, amino acids 2-185) (Homo sapiens, UniProt O15151); assay: p53-MDM4 Assay 1: TR-FRET inhibition of p53-MDM4 interaction; assay type: binding; conditions: 2.5 nM MDM4-biotinylated, 10 nM Cy5-p53 peptide
T2 construct: human MDM4 protein (amino acids 2-185); made in house
T2 sequence (O15151 2-185): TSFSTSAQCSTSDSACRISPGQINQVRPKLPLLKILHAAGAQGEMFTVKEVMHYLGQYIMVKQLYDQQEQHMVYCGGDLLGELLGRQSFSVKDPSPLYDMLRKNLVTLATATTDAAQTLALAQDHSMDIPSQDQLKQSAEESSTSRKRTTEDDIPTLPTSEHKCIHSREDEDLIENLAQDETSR
Protocol: as §1, §2, §3, §4

[3] = biological target: T1, p53-MDM2 interaction (human MDM2 protein, amino acids 2-188); assay: p53-MDM2 Assay 2: slightly modified TR-FRET assay; assay type: binding; conditions: 0.1 nM MDM2, 0.1 nM Europium labeled streptavidin, Tecan genios Pro reader
Protocol: as §1, §2, §3, §4

IC50 [1] [nM] | IC50 [2] [nM] | IC50 [3] [nM] | melting point [°C] | SMILES
1.5 | 1480 | 0.33 | – | CCn1cc(N2C(=O)Nc3nn(-c4ccccc4OC)c(C(C)C)c3C2c2ccc(Cl)cc2)cc(Cl)c1=O (centres unmarked) [Example 14, 5-(5-Chloro-1-ethyl-6-oxo-1,6-dihydro-pyridin-3-yl)-4-(4-chloro-phenyl)-3-isopropyl-2-(2-methoxy-phenyl)-2,4,5,7-tetrahydro-pyrazolo[3,4-d]pyrimidin-6-one]
3.2 | 8200 | – | 150 to 153 | Cc1cc(Cl)ccc1C1c2c(nn(Cc3ccccn3)c2C(C)C)NC(=O)N1c1cccc(Cl)c1F (centres unmarked) [Example 8, 5-(3-Chloro-2-fluoro-phenyl)-4-(4-chloro-2-methyl-phenyl)-3-isopropyl-2-pyridin-2-ylmethyl-2,4,5,7-tetrahydro-pyrazolo[3,4-d]pyrimidin-6-one]
2.7 | 6230 | 1.43 | – | COc1ccccc1-n1nc2c(c1C(C)C)C(c1ccc(Cl)cc1)N(c1cc(Cl)c(=O)n(CCN(C)C)c1)C(=O)N2 (centres unmarked) [Example 22, 5-[5-Chloro-1-(2-dimethylamino-ethyl)-6-oxo-1,6-dihydro-pyridin-3-yl]-4-(4-chloro-phenyl)-3-isopropyl-2-(2-methoxy-phenyl)-2,4,5,7-tetrahydro-pyrazolo[3,4-d]pyrimidin-6-one]
1.6 | 2180 | 0.25 | – | COc1ccccc1-n1nc2c(c1C(C)C)C(c1ccc(Cl)cc1)N(c1cc(Cl)c(=O)n(C)c1)C(=O)N2 (centres unmarked) [Example 13, 5-(5-Chloro-1-methyl-6-oxo-1,6-dihydro-pyridin-3-yl)-4-(4-chloro-phenyl)-3-isopropyl-2-(2-methoxy-phenyl)-2,4,5,7-tetrahydro-pyrazolo[3,4-d]pyrimidin-6-one]
1.45 | 1710 | – | 140 to 143 | COc1ccccc1-n1nc2c(c1C(C)C)C(c1ccc(Cl)cc1C)N(c1cccc(Cl)c1F)C(=O)N2 (centres unmarked) [Example 5, 5-(3-Chloro-2-fluoro-phenyl)-4-(4-chloro-2-methyl-phenyl)-3-isopropyl-2-(2-methoxy-phenyl)-2,4,5,7-tetrahydro-pyrazolo[3,4-d]pyrimidin-6-one]
1.45 | 1550 | 0.18 | – | COc1ccccc1-n1nc2c(c1C(C)C)C(c1ccc(Cl)cc1C)N(c1cc(Cl)c(=O)n(C)c1)C(=O)N2 (centres unmarked) [Example 15, 5-(5-Chloro-1-methyl-6-oxo-1,6-dihydro-pyridin-3-yl)-4-(4-chloro-2-methyl-phenyl)-3-isopropyl-2-(2-methoxy-phenyl)-2,4,5,7-tetrahydro-pyrazolo[3,4-d]pyrimidin-6-one]
1.6 | 2370 | 0.56 | – | COc1ccccc1-n1nc2c(c1C(C)C)C(c1ccc(Cl)cc1)N(c1cc(Cl)c(=O)n(CCO)c1)C(=O)N2 (centres unmarked) [Example 18, 5-[5-Chloro-1-(2-hydroxy-ethyl)-6-oxo-1,6-dihydro-pyridin-3-yl]-4-(4-chloro-phenyl)-3-isopropyl-2-(2-methoxy-phenyl)-2,4,5,7-tetrahydro-pyrazolo[3,4-d]pyrimidin-6-one]
1.1 | 4700 | 0.21 | – | COc1ccccc1-n1nc2c(c1C(C)C)C(c1ccc(Cl)cc1C)N(c1cc(Cl)ccc1C)C(=O)N2 (centres unmarked) [Example 10, 4-(4-Chloro-2-methyl-phenyl)-5-(5-chloro-2-methyl-phenyl)-3-isopropyl-2-(2-methoxy-phenyl)-2,4,5,7-tetrahydro-pyrazolo[3,4-d]pyrimidin-6-one]
1.4 | 1630 | 0.19 | – | CCn1cc(N2C(=O)Nc3nn(-c4ccccc4OC)c(C(C)C)c3C2c2ccc(Cl)cc2C)cc(Cl)c1=O (centres unmarked) [Example 21, 5-(5-Chloro-1-ethyl-6-oxo-1,6-dihydropyridin-3-yl)-4-(4-chloro-2-methylphenyl)-3-isopropyl-2-(2-methoxyphenyl)-4,5-dihydro-2H -pyrazolo[3,4-d]pyrimidin-6(7H)-one]
3.5 | – | – | 105 to 107 | Cc1cc(Cl)ccc1C1c2c(nn(Cc3ccccc3)c2C(C)C)NC(=O)N1c1cc(Cl)ccc1C (centres unmarked) [Example 11, 2-Benzyl-4-(4-chloro-2-methyl-phenyl)-5-(5-chloro-2-methyl-phenyl)-3-isopropyl-2,4,5,7-tetrahydro-pyrazolo[3,4-d]pyrimidin-6-one]
3.5 | 78800 | – | 81 to 83 | CC(C)=CCn1nc2c(c1C(C)C)C(c1ccc(Cl)cc1C)N(c1cccc(Cl)c1F)C(=O)N2 (centres unmarked) [Example 4, 5-(3-chloro-2-fluorophenyl)-4-(4-chloro-2-methylphenyl) -3-isopropyl-2-(3-methylbut-2-en-1-yl)-4,5-dihydro-2H-pyrazolo[3,4-d]pyrimidin-6(7H)-one]
1.3 | 1350 | 0.17 | – | COCCn1cc(N2C(=O)Nc3nn(-c4ccccc4OC)c(C(C)C)c3C2c2ccc(Cl)cc2C)cc(Cl)c1=O (centres unmarked) [Example 19, 5-[5-Chloro-1-(2-methoxy-ethyl)-6-oxo-1,6-dihydro-pyridin-3-yl]-4-(4-chloro-2-methyl-phenyl)-3-isopropyl-2-(2-methoxy-phenyl)-2,4,5,7-tetrahydro-pyrazolo[3,4-d]pyrimidin-6-one]
0.7 | 2760 | 0.42 | – | COc1ccccc1-n1nc2c(c1C(C)C)[C@H](c1ccc(Cl)cc1C)N(c1cccc(Cl)c1F)C(=O)N2 [Example 6, (S)-5-(3-Chloro-2-fluoro-phenyl)-4-(4-chloro-2-methyl-phenyl)-3-isopropyl-2-(2-methoxy-phenyl)-2,4,5,7-tetrahydro-pyrazolo[3,4-d]pyrimidin-6-one]
